Reference: patent US20240124872A1, “IDENTIFICATION OF GENOMIC TARGETS” (University of Leeds, priority 2021, published 2024)

Experiments:
[1] = test system: HeLa cells stably expressing CaMPARI-H396K; assay: AITC responsiveness via Fura-2 calcium imaging; type: cell-based; conditions: unmodified HeLa cells stably expressing CaMPARI-H396K (HeLa-C); FIG. 4
Method: FIG. 4 provides validation of TAGS (AITC-screen for TRPA1). a) a Piggy-Bac library was generated in Hela-C cells, stimulated with 100 uM AITC and co-incident photo-conversion light, and sorted via FACS based on CaMPARI red/green signal. b) Positive clones were collected as single cells, expanded into clonal populations, and testing for AITC responsiveness via Fura-2 calcium imaging. Percent responding cells are shown for each population. c-d) Example Fura-2 imaging traces. c) phenotypic negativity of HeLa-C cells. d) Example traces from population #22 in b. e) Genotyping of 100% responders. […] Blue arrows highlight transcription start site (TSS) of TRPA1. Red arrows highlight the true common insertion site (CIS) upstream of the TSS, found in every clone genotyped.
A test sample from each positive clonal line was loaded with the fluorescent calcium indicator Fura-2AM for 30 minutes in regular media supplemented with 1 ul/ml PluronicF127, washed with Ringer solution, and tested for positivity for the phenotype in question using conventional fluorescent microscopy (see FIG. 4a-d). A further test sample from confirmed positive clonal lines was transfected (as described above) with the pCAG-Cre vector (Addgene) to induce transient Cre recombinase expression. Phenotypic positivity was then re-tested as above, and populations in which the phenotype […] are discarded. […]

TRPA1 knockout mice = conditions: cited from earlier work

C=CCN=C=S [AITC]
AITC responses (calcium signalling) [1]: phenotypically negative
sensitivity to AITC (TRPA1 knockout mice): lose all sensitivity
